From ChEMBL document CHEMBL4610068, “Diterpenoids from the Root Bark of Pinus massoniana and Evaluation of Their Phosphodiesterase Type 4D Inhibitory Activity” (J Nat Prod, 2020) come the findings set out here.

Structures are written as SMILES.

In the test the target is 3',5'-cyclic-AMP phosphodiesterase 4D (Homo sapiens, UniProt Q08499). Kind of test: Inhibition of human PDE4D catalytic domain (86 to 413 residues) expressed in Escherichia coli BL21 (DE3) cells using [3H]cAMP as substrate measured after 30 mins by scintillation proximity assay.
Chain of 3',5'-cyclic-AMP phosphodiesterase 4D (Q08499 whole entry, the tested form may be a part): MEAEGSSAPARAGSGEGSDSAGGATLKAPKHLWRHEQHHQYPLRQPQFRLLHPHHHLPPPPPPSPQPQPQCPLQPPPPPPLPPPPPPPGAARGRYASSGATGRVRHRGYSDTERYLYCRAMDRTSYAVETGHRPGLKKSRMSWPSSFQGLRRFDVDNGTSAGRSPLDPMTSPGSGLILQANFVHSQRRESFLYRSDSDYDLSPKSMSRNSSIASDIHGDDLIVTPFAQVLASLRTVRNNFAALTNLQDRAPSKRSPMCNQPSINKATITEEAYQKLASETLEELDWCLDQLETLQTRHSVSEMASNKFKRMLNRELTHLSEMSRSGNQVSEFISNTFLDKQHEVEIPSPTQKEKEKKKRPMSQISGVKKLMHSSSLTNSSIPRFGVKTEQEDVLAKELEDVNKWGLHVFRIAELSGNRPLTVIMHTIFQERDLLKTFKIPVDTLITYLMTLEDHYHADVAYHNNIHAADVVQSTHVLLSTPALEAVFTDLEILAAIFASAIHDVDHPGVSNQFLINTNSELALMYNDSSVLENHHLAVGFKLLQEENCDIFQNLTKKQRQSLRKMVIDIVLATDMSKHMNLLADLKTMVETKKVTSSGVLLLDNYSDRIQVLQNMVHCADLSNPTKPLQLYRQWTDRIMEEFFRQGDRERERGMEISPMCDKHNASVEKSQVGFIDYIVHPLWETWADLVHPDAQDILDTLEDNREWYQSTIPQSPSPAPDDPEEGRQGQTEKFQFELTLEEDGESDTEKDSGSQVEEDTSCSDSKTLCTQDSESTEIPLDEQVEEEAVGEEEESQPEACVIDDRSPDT

For orientation: IC50 means the concentration that gives 50% inhibition. Higher therefore signals weaker potency in that assay. In turn, `CC(C)C1=CC[C@H]2C(=CC[C@@H]3[C@]2(C)CCC[C@@]3(C)C(=O)O)C1=O` returned an IC50 of 2.8 µM.

Regarding `C=C(C)c1ccc2c(c1)CC[C@H]1[C@](C)(C(=O)O)CCC[C@]21C`, the IC50 stood at 3.3 µM.
